US8945864B2, “Method of determining 1,5-anhydroglucitol, and reagent composition for determining 1,5-anhydroglucitol” (Ikeda Food Research Co., Ltd., priority 2006, dated 2015)
Where two headings read alike, the source gives them in different places.

What was measured:
sorbose dehydrogenase [1] = target: T1, sorbose dehydrogenase (Sinorhizobium meliloti, UniProt Q92YU0); assay: Substrate specificity of sorbose dehydrogenase (relative reactivity, DCIP method); assay type: biochemical, Sinorhizobium sp. 97507
Experimental: One mL of a 0.1 M potassium phosphate buffer, pH 7.0, 1.0 mL of 1.0 M L-sorbose, 0.14 mL of 3 mM 2,6-dichlorophenol indophenol (DCIP), 0.2 mL of 3 mM 1-methoxy-5-methylphenazinium methyl sulfate, and 0.61 mL of water were added to a 3 mL quartz cell, and the quartz cell was set to a spectrophotometer equipped with a thermostat cell holder, and incubated at 37° C. for ten minutes. Then, 0.05 mL of the enzyme solution was added to the quartz cell, and changes in absorbance of DCIP at 600 nm (AABS600/min) was measured at 37° C. As the molar extinction coefficient of DCIP at pH 7.0 is known as 16.3 mM^−1, and the amount of enzyme that reduced 1 μmol of DCIP for one minute is defined as one unit. Following the definition, the concentration of enzyme activity was calculated based on the following equation. enzyme activity (units/mL)=(−ΔABS600/min×3.0×dilution rate)/(16.3×1.0×0.05)
Measurement conditions in the above “method of measuring enzyme activity” were suitably modified as necessary, and the optimal pH, pH stability, optimal temperature, temperature stability, substrate specificity, Km value, total molecular weight, subunit molecular weight, inhibitor, and product of the enzyme reaction were identified. The properties of the enzyme were evaluated in accordance with the following tests.
[…]. The results are shown as a relative value of each substrate with reference to the value of activity of L-sorbose as a standard.

sorbose dehydrogenase [2] = target: T1, sorbose dehydrogenase; assay: Inhibitor test: additive in the reaction solution for the activity measurement; assay type: biochemical, Sinorhizobium sp. 97507; settings: for activity at 1000 µM: read-out: Relative activity (%)
[3] = substrate 333 mM (lactose 167 mM)
[4] = additive final concentration 1.0 mM, control without additive = 100%
[5] = substrate final concentration 333 mM, […]
[6] = substrate final concentration 333 mM, relative to activity of L-sorbose as standard (100)

T1 sequence (Q92YU0 entry or part of it): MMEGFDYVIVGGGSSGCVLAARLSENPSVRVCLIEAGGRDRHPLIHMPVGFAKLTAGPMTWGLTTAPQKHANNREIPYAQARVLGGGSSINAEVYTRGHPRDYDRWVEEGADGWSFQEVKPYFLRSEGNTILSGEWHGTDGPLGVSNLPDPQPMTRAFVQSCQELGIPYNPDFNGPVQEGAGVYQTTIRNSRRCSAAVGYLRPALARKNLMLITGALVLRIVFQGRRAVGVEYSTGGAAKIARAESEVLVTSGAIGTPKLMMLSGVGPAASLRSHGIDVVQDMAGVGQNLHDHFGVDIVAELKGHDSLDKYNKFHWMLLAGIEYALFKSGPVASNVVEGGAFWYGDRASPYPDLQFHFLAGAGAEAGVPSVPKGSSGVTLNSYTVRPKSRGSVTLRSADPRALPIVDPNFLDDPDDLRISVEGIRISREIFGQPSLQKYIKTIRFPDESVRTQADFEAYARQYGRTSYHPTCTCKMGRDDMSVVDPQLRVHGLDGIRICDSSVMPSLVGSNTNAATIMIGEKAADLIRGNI

O[C@H]1[C@H](O)[C@@H](O)[C@H](O)[C@@H](O)[C@H]1O [inositol]
Effect of the sorbose dehydrogenase on the substrate (in words) (sorbose dehydrogenase [1]; [3]): little effect

[Cl][Hg][Cl] [HgCl2]
Relative activity (%) (sorbose dehydrogenase [2]; [4]): 0% | Inhibition of the sorbose dehydrogenase (in words) (sorbose dehydrogenase [2]; heavy metal ions, 1 mM): remarkably inhibited

Oc1cccc2cccnc12 [8-quinolinol]
Relative activity (%) (sorbose dehydrogenase [2]): 106%

OC[C@H]1O[C@@H](O[C@H]2[C@H](O)[C@@H](O)[C@H](O)O[C@@H]2CO)[C@H](O)[C@@H](O)[C@@H]1O [D-cellobiose]
Effect of the sorbose dehydrogenase on the substrate (in words) (sorbose dehydrogenase [1]; [3]): little effect

OC[C@H]1O[C@@](CO)(O[C@H]2O[C@H](CO)[C@@H](O)[C@H](O)[C@H]2O)[C@@H](O)[C@@H]1O [sucrose]
Effect of the sorbose dehydrogenase on the substrate (in words) (sorbose dehydrogenase [1]; [3]): little effect

N[C@@H]1CONC1=O [D-cycloserine]
Relative activity (%) (sorbose dehydrogenase [2]; [4]): 90%

[Cl][Cd][Cl] [CdCl2]
Relative activity (%) (sorbose dehydrogenase [2]): 91%

2-(p-)nitrobenzoic acid
Relative activity (%) (sorbose dehydrogenase [2]; [4]): 75%

CCO [Ethanol]
Effect of the sorbose dehydrogenase on the substrate (in words) (sorbose dehydrogenase [1]): little effect | Relative activity (%) (sorbose dehydrogenase [1]): 0%

CO [methanol]
Effect of the sorbose dehydrogenase on the substrate (in words) (sorbose dehydrogenase [1]): little effect

NN=C(N)N.O=S(=O)(O)O [Aminoguanidine sulfate]
Relative activity (%) (sorbose dehydrogenase [2]): 91%

OCC(O)CO [Glycerol]
Effect of the sorbose dehydrogenase on the substrate (in words) (sorbose dehydrogenase [1]; [3]): little effect | Relative activity (%) (sorbose dehydrogenase [1]; [5]): 0%

[Cl][Al]([Cl])[Cl] [AlCl3]
Relative activity (%) (sorbose dehydrogenase [2]; [4]): 109%

OC[C@H]1O[C@@H](O[C@H]2[C@H](O)[C@@H](O)C(O)O[C@@H]2CO)[C@H](O)[C@@H](O)[C@H]1O (stereo partly drawn) [Lactose]
Effect of the sorbose dehydrogenase on the substrate (in words) (sorbose dehydrogenase [1]; [3]): little effect | Relative activity (%) (sorbose dehydrogenase [1]; substrate final concentration 167 mM (lactose), […]): 0.71%

O=C[C@H](O)[C@@H](O)[C@H](O)CO [D-xylose]
Effect of the sorbose dehydrogenase on the substrate (in words) (sorbose dehydrogenase [1]; [3]): little effect

[Cl][Fe]([Cl])[Cl] [FeCl3]
Relative activity (%) (sorbose dehydrogenase [2]; [4]): 89%

OC[C@H]1OC[C@H](O)[C@@H](O)[C@@H]1O [1,5-anhydroglucitol]
Effect of the sorbose dehydrogenase on the substrate (in words) (sorbose dehydrogenase [1]; [3]): strong effect | Relative activity (%) (sorbose dehydrogenase [1]; [6]): 79.1%

Triton X-100
Relative activity (%) (sorbose dehydrogenase [2]; [4]): 39%

O=C(O)c1ccccc1 [Benzoic acid]
activity at 1000 µM (sorbose dehydrogenase [2]): 101%

C[C@H](O)[C@H](O)[C@@H](O)[C@@H](O)C=O [L-rhamnose]
Effect of the sorbose dehydrogenase on the substrate (in words) (sorbose dehydrogenase [1]; [3]): little effect

O=C(CO)[C@H](O)[C@@H](O)[C@H](O)CO [D-(−)-sorbose]
Effect of the sorbose dehydrogenase on the substrate (in words) (sorbose dehydrogenase [1]; [3]): weak effect | Relative activity (%) (sorbose dehydrogenase [1]; [5]): 2.96%

C=CCO [Allyl alcohol]
Effect of the sorbose dehydrogenase on the substrate (in words) (sorbose dehydrogenase [1]; [3]): weak effect | Relative activity (%) (sorbose dehydrogenase [1]; [5]): 3.80%

NC(N)=O [Urea]
Relative activity (%) (sorbose dehydrogenase [2]; [4]): 92%

CC(C)CO [2-methyl-1-propanol]
Effect of the sorbose dehydrogenase on the substrate (in words) (sorbose dehydrogenase [1]; [3]): weak effect | Relative activity (%) (sorbose dehydrogenase [1]; [6]): 2.06%

CCCC(C)O (stereo not drawn) [2-pentanol]
Effect of the sorbose dehydrogenase on the substrate (in words) (sorbose dehydrogenase [1]; [3]): little effect

O=C(O)/C=C/C(=O)O [Fumaric acid]
activity at 1000 µM (sorbose dehydrogenase [2]): 99%

CC(O)C(C)O (stereo not drawn) [2,3-butanediol]
Effect of the sorbose dehydrogenase on the substrate (in words) (sorbose dehydrogenase [1]): little effect | Relative activity (%) (sorbose dehydrogenase [1]): 0.26%

O=C(O)/C=C\C(=O)O [Maleic acid]
activity at 1000 µM (sorbose dehydrogenase [2]): 82%

O=C(O)C(O)C(O)C(=O)O (stereo not drawn) [meso-tartaric acid]
Relative activity (%) (sorbose dehydrogenase [2]; [4]): 94%

Acriflavin
Relative activity (%) (sorbose dehydrogenase [2]; [4]): 66%

CCCO [1-propanol]
Effect of the sorbose dehydrogenase on the substrate (in words) (sorbose dehydrogenase [1]; [3]): little effect | Relative activity (%) (sorbose dehydrogenase [1]; [6]): 0.75%

[Cl][Mn][Cl] [MnCl2]
Inhibition of the sorbose dehydrogenase (in words) (sorbose dehydrogenase [2]): remarkably inhibited | Relative activity (%) (sorbose dehydrogenase [2]): 11%

OC[C@@H](O)[C@@H](O)[C@H](O)[C@H](O)CO [D-mannitol]
Effect of the sorbose dehydrogenase on the substrate (in words) (sorbose dehydrogenase [1]; [3]): little effect

O=C[C@H](O)[C@@H](O)[C@@H](O)CO [L-arabinose]
Effect of the sorbose dehydrogenase on the substrate (in words) (sorbose dehydrogenase [1]; [3]): little effect
